The test system of test [1] is TNF alpha, BALB/c mice injected with LPS. Put plainly: Mouse model of LPS-induced TNF alpha production. Type of test: in vivo. As to conditions: for mLPS 8 h percent inhibition: Table 6, mouse LPS, head '8 h'; for inhibition in vivo at 30 mg/kg: Mus musculus, read-out: Mouse LPS Model % TNF inhib @ dose @ predose time; for inhibition in vivo at 30 mg/kg / Mouse LPS Model % TNF inhib @ dose @ predose time: 30 mpk oral gavage. Here is the method:
Mouse Model of LPS-induced TNF Alpha Production:
TNF alpha was induced in 10-12 week old BALB/c female mice by tail vein injection with 100 ng lipopolysaccharide (from S. Typhosa) in 0.2 ml saline. One hour later mice were bled from the retroorbital sinus and TNF concentrations in serum from clotted blood were quantified by ELISA.
Efficacy was determined at each time point as percent inhibition of serum TNF levels relative to LPS injected mice that received vehicle only.
In vivo assessment of the ability of the compounds to inhibit LPS-stimulated TNP release in the mouse is shown in the column identified as: • “Mouse LPS Model, % TNF inhib @ dose @ predose time” wherein in the dose is milligram per kilogram (mpk) administered by oral gavage and the predose time indicates the number of hours before LPS challenge when the compound is administered.

For test [2], the system named is TNF-α, U937 human histiocytic lymphoma cell line. Put plainly: LPS stimulation of TNF production by U937 cells. Type of test: cell-based. The method, boiled down: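 U937 cells differentiated 24 h with 20 ng/ml PMA, rested 24-48 h, used at 2 million cells/ml. Compounds in 0.1% DMSO final; LPS (E. coli, 100 ng/ml final) stimulation for 4 h at 37° C. Released TNF-α measured by ELISA; IC50 (μM).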

The next test deals with T1, human p38 kinase alpha (Homo sapiens, UniProt Q16539).
T1 construct: GST (N, cleaved yes); made in house; host or cells: E. coli DH10B
T1 sequence (Q16539 whole entry): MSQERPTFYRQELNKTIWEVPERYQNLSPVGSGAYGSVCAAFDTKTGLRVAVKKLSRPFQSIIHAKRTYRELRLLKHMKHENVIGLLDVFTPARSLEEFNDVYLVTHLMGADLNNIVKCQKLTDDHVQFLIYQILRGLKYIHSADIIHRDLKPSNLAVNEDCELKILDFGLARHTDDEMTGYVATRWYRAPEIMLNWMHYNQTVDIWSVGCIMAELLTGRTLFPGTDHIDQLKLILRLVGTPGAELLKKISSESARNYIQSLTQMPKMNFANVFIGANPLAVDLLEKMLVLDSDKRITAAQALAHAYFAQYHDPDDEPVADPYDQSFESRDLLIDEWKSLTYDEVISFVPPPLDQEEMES
The experiment in a line: p38 kinase in vitro assay, phosphorylation of biotinylated PHAS-I with 32P-ATP. Type of test: biochemical. As to conditions: for IC50: read-out: P38 alpha kinase IC50; for P38 alpha kinase % inhib @ conc. (uM): @ 1.0 uM.

In test [3] the test system is TNF-α, rats challenged with LPS. The experiment in a line: Rat assay, LPS-stimulated TNF release. Type of test: in vivo. To be noted: Rattus norvegicus, po, 3 mpk oral gavage, −4 h before LPS challenge; read-out: Rat LPS Model % inhib @ dose @ predose time. On the procedure:
The efficacy of the novel compounds in blocking the production of TNF also was evaluated using a model based on rats challenged with LPS. Male Harlen Lewis rats [Sprague Dawley Co.] were used in this model. Each rat weighed approximately 300 g and was fasted overnight prior to testing. Compound administration was typically by oral gavage (although intraperitoneal, subcutaneous and intravenous administration were also used in a few instances) 1 to 24 hours prior to the LPS challenge. Rats were administered 30 μg/kg LPS [salmonella typhosa, Sigma Co.] intravenously via the tail vein. Blood was collected via heart puncture 1 hour after the LPS challenge. Serum samples were stored at −20° C. until quantitative analysis of TNF-α by Enzyme Linked-Immuno-Sorbent Assay (“ELISA”) [Biosource]. Additional details of the assay are set forth in Perretti, M., et al., Br. J. Pharmacol. (1993), 110, 868-874, which is incorporated by reference in this application.
In vivo assessment of the ability of the compounds to inhibit LPS-stimulated TNF release in the rat is shown in the column identified as: • “Rat LPS Model, % TNF inhib dose @ predose time” wherein in the dose is milligram per kilogram (mpk) administered by oral gavage and the predose time indicates the number of hours before LPS challenge when the compound is administered.
In vivo assessment of the ability of the compounds to inhibit LPS-stimulated TNF release in the rat is shown in the column identified as: • “Rat LPS Model % Inhibition@dose@predose time” wherein the dose is milligram per kilogram (mpk) administered by oral gavage and the predose time indicates the number of hours before LPS challenge when the compound is administered.
In vitro p38 alpha kinase inhibitory data are shown in the column identified as “p38 alpha IC50 (μM)”. In vitro human whole blood assay data for measuring the ability of the compounds to inhibit TNF production in human whole blood stimulated with LPS are shown in the column identified as: “HWB IC50 (μM)”. In vivo assessment of the ability of the compounds to inhibit LPS-stimulated TNF-release in the rat is shown in the column identified as: “ratLPS/%Inh@dose(mg/kg)”, wherein the dose is in milligram per kilogram (mg/kg) administered by oral gavage, 4 hours before LPS challenge.

Where [4] appears, read: Table 6, U937 cell assay, read-out: U937 IC50.
[5] abbreviates: in vitro P38-alpha kinase inhibition.
Where [6] appears, read: TNF production, human U937 cells stimulated with LPS, read-out: U937 Cell IC50.
The mark [7] stands for this setting: predose time not printed ("@ -").

Each structure is given as a SMILES string. Where two headings read alike, the source gives them in different places. Some results are limits rather than exact numbers.

In general, IC50 refers to the concentration at which inhibition is half-maximal. Take `Fc1ccc(CNc2cc(-c3cn(CCN4CCOCC4)nc3-c3ccc(F)cc3)ccn2)cc1` [Example A-276, N-[(4-fluorophenyl)methyl]-4-[3(or 5)-(4-fluorophenyl)-1-[[2-(4-morpholinyl)ethyl]-1H-pyrazol-4-yl]-2-pyridinamine]: in test [1] (dose 30, oral gavage), the “mLPS 8 h percent inhibition” value is −24%. Besides, the IC50 in test [2] (setting [4]) amounted to 450 nM.

Turning to `OCCNc1cc(-c2c[nH]nc2-c2ccc(F)cc2)ccn1` [Example A-280], the “mLPS 8 h percent inhibition” value in test [1] (dose 30, oral gavage) stood at 15%.

Turning to `Cn1cc(-c2ccnc(NCCO)c2)c(-c2ccc(F)cc2)n1` [Example A-281, 2-[[4-[3-(4-fluorophenyl)-1-methyl-1H-pyrazol-4-yl]-2-pyridinyl]amino]ethanol], the “mLPS 8 h percent inhibition” value in test [1] (dose 30, oral gavage) worked out at 22%.

Consider `OCCCNc1cc(-c2c[nH]nc2-c2ccc(F)cc2)ccn1` [Example A-282, 3-[[4-(3-(4-fluorophenyl)-1H-pyrazol-4-yl]-2-pyridinyl]amino]-1-propanol], for which the “mLPS 8 h percent inhibition” value in test [1] (dose 30, oral gavage) is listed as 30%.

In the case of `OCCn1cc(-c2ccnc(NCc3ccc(F)cc3)c2)c(-c2ccc(F)cc2)n1` [Example A-283, 3 (or 5)-(4-fluorophenyl)-4-[2-[[(4-fluorophenyl)methyl]amino]-4-pyridinyl]-1H-pyrazole-1-ethanol], the “mLPS 8 h percent inhibition” value in test [1] (dose 30, oral gavage) is listed as −20%. Besides, the half-maximal inhibitory concentration (IC50) in test [2] (setting [4]) is 800 nM.

For the compound `CCN(CC)CCn1cc(-c2ccncc2)c(-c2ccc(F)cc2)n1` [Example A-284, N,N-diethyl-3-(4-fluorophenyl)-4-(4-pyridinyl)-1H-pyrazole-1-ethanamine], the “mLPS 8 h percent inhibition” value in test [1] (dose not given, oral gavage) is listed as −1%.

Take `Fc1ccc(CNc2cc(-c3cn(CCN4CCOCC4)nc3-c3ccc(F)cc3)ccn2)cc1` [Example A-285, N-[(4-fluorophenyl)methyl]-4-[3-(4-fluorophenyl)-1-[2-(4-morpholinyl)ethyl]-1H-pyrazol-4-yl]-2-pyridinamine]: in test [1] (dose 30, oral gavage), the “mLPS 8 h percent inhibition” value is given as 11%. Also, in test [2] (setting [4]), the IC50 came out at 180 nM.

For `Fc1ccc(-c2n[nH]c(NCCCN3CCOCC3)c2-c2ccncc2)cc1` [Example A-286, N-[5-(4-fluorophenyl)-4-(4-pyridinyl)-1H-pyrazol-3-yl]-4-morpholinepropanamine], the “mLPS 8 h percent inhibition” value in test [1] (dose 30, oral gavage) is given as 29%.

Take `CN(C)CCCNc1[nH]nc(-c2ccc(F)cc2)c1-c1ccncc1` [Example A-287, N′-[5-(4-fluorophenyl)-4-(4-pyridinyl)-1H-pyrazol-3-yl]-N,N-dimethyl-1,3-propanediamine]: in test [1] (dose 30, oral gavage), the “mLPS 8 h percent inhibition” value is −24%.

For `C#CCNc1[nH]nc(-c2ccc(F)cc2)c1-c1ccncc1` [Example A-288, 5-(4-fluorophenyl)-N-2-propynyl-4-(4-pyridinyl)-1H-pyrazol-3-amine], in test [1] (dose 30, oral gavage), the “mLPS 8 h percent inhibition” value worked out at 40%.

Turning to `OCCn1cc(-c2ccnc(NCc3ccc(F)cc3)c2)c(-c2ccc(F)cc2)n1` [Example A-289, 3-(4-fluorophenyl)-4-[2-[[(4-fluorophenyl)methyl]amino]-4-pyridinyl]-1H-pyrazole-1-ethanol], in test [1] (dose 30, oral gavage), the “mLPS 8 h percent inhibition” value amounted to 44%. Also, in test [2] (setting [4]), the half-maximal inhibitory concentration (IC50) turned out to be 140 nM.

Consider `OCCn1ncc(-c2ccnc(NCc3ccc(F)cc3)c2)c1-c1ccc(F)cc1` [Example A-290, 5-(4-fluorophenyl)-4-[2-[[(4-fluorophenyl)methyl]amino]-4-pyridinyl]-1H-pyrazole-1-ethanol], for which the “mLPS 8 h percent inhibition” value in test [1] (dose 30, oral gavage) is 4%.

Regarding `Fc1ccc(-c2n[nH]cc2-c2ccnc3ccccc23)cc1` [Example A-291], the “mLPS 8 h percent inhibition” value in test [1] (dose 30, oral gavage) is on record as 36%.

As for `C#CCn1cc(-c2ccncc2)c(-c2ccc(F)cc2)n1` [Example A-294, 4-[3-(4-fluorophenyl)-1-(2-propynyl)-1H-pyrazol-4-yl]pyridine], the “mLPS 8 h percent inhibition” value in test [1] (dose 30, oral gavage) was found to be 61%.

As to `C#CCn1ncc(-c2ccncc2)c1-c1ccc(F)cc1` [Example A-295, 4-[5-(4-fluorophenyl)-1-(2-propynyl)-1H-pyrazol-4-yl]pyridine], the “mLPS 8 h percent inhibition” value in test [1] (dose 30, oral gavage) is listed as 94%.

For the compound `Clc1ccc(-c2n[nH]cc2-c2ccncc2)cc1Cl` [Example A-297, 4-[3-(3,4-dichlorophenyl)-1H-pyrazol-4-yl]pyridine], the “mLPS 8 h percent inhibition” value in test [1] (dose 30, oral gavage) amounted to 89%.

Regarding `Cc1ccc(F)cc1S(=O)(=O)NC(C)c1[nH]nc(-c2ccc(F)cc2)c1-c1ccncc1` (stereo not drawn) [Example B-0451], the inhibition in vivo at 30 mg/kg in test [1] (−5 h before LPS challenge) is 42%. Moreover, at human p38 kinase alpha (setting [5]), the IC50 was found to be 71 nM.

In the case of `CC(C)C(=O)NC(C)c1[nH]nc(-c2ccc(F)cc2)c1-c1ccncc1` (stereo not drawn) [Example B-0532], in test [1] (−6 h before LPS challenge), the inhibition in vivo at 30 mg/kg was 41%. The IC50 in test [2] (Homo sapiens, U-937, TNF production in human U937 cells stimulated with LPS, read-out: U937 Cell IC50) is 1010 nM; at human p38 kinase alpha (setting [5]), 450 nM.

Turning to `COc1ccc(S(=O)(=O)NC(C)c2[nH]nc(-c3ccc(F)cc3)c2-c2ccncc2)cc1` (stereo not drawn) [Example B-0574], in test [3], the inhibition in vivo at 3 mg/kg came out at 37%.

Regarding `Cc1ccc(S(=O)(=O)NC(C)c2[nH]nc(-c3ccc(F)cc3)c2-c2ccncc2)cc1` (stereo not drawn) [Example B-0576], the IC50 on human p38 kinase alpha (setting [5]) was found to be 68 nM. For the same compound, the inhibition in vivo at 3 mg/kg in test [3] came to 65%.

Take `CNC(=O)NC(C)c1[nH]nc(-c2ccc(F)cc2)c1-c1ccncc1` (stereo not drawn) [Example B-0585]: in test [1] (−6 h before LPS challenge), the inhibition in vivo at 30 mg/kg was 50%. Also, the IC50 at human p38 kinase alpha (setting [5]) turned out to be 830 nM.

For the compound `CC(NC(=O)C(C)(C)C)c1[nH]nc(-c2ccc(F)cc2)c1-c1ccncc1` (stereo not drawn) [Example B-0601], the half-maximal inhibitory concentration (IC50) at human p38 kinase alpha (setting [5]) was found to be 89 nM. For the same compound, in test [3], the inhibition in vivo at 3 mg/kg turned out to be 43%.

Regarding `CC(=O)OCC(=O)NCCCc1[nH]nc(-c2ccc(F)cc2)c1-c1ccncc1` [Example B-1158], the “Mouse LPS Model % TNF inhib @ dose @ predose time” value in test [1] (−6 h before LPS challenge) came to 53% @ 30 mpk @ −6 h. In test [2] (setting [6]), the IC50 was 680 nM. Moreover, on human p38 kinase alpha, the “P38 alpha kinase % inhib @ conc. (uM)” value was 74% @.

On to `O=C(NCCCc1[nH]nc(-c2ccc(F)cc2)c1-c1ccncc1)c1ccccc1I` [Example B-1159], for which the “Mouse LPS Model % TNF inhib @ dose @ predose time” value in test [1] (−6 h before LPS challenge) is 60% @ 30 mpk @ −6 h. Further, on human p38 kinase alpha, the “P38 alpha kinase % inhib @ conc. (uM)” value came to 66.0% @.

Turning to `C=CCOC(=O)NCCCc1[nH]nc(-c2ccc(F)cc2)c1-c1ccncc1` [Example B-1162], in test [1] (−6 h before LPS challenge), the “Mouse LPS Model % TNF inhib @ dose @ predose time” value came out at 40% @ 30 mpk @ −6 h. In addition, in test [2] (setting [6]), the IC50 was found to be 590 nM. Further, the “P38 alpha kinase % inhib @ conc. (uM)” value on human p38 kinase alpha is 79.0% @.

As to `O=C(c1ccc(F)cc1)N1CCC(c2[nH]nc(-c3ccc(F)cc3)c2-c2ccncc2)CC1` [Example B-1360], the inhibition in vivo at 3 mg/kg in test [3] came to 54%.

`COCC(=O)N1CCC(c2[nH]nc(-c3ccc(F)cc3)c2-c2ccncc2)CC1` [Example B-1368]: the inhibition in vivo at 30 mg/kg in test [1] (setting [7]) is 44%. For the same compound, the half-inhibitory concentration (IC50) on human p38 kinase alpha (in vitro P38-alpha kinase) came to 31 nM.

As for `O=C(c1ccccc1F)N1CCC(c2[nH]nc(-c3ccc(F)cc3)c2-c2ccncc2)CC1` [Example B-1372], the inhibition in vivo at 30 mg/kg in test [1] (setting [7]) turned out to be 48%. The IC50 in test [2] (Homo sapiens, U-937, TNF production, human U937 cells stimulated with LPS, read-out: U937 Cell IC50) is 410 nM; on human p38 kinase alpha (in vitro P38-alpha kinase), under 100 nM.

For the compound `CS(=O)(=O)N1CCC(c2[nH]nc(-c3ccc(F)cc3)c2-c2ccncc2)CC1` [Example B-1376], the “Mouse LPS Model % TNF inhib @ dose @ predose time” value in test [1] (−6 h before LPS challenge) is recorded as 3.0% @ 30 mpk @ −6 H. Besides, the 50% inhibitory concentration (IC50) on human p38 kinase alpha (in vitro P38-alpha kinase) was 9 nM.

(Values after patent US6979686B1, “Substituted pyrazoles as p38 kinase inhibitors” (Pharmacia Corporation, priority 2001, dated 2005).)
